Source: patent US8546391B2, “Thiadiazole and oxadiazole derivatives, preparation thereof and therapeutic use thereof” (Sanofi, priority 2009, dated 2013)

What was measured:
[1] = system: triglyceride biosynthesis; experiment: in vitro inhibitory activity on triglyceride biosynthesis, cell test ([14C] glycerol incorporation in Chang liver cells); type: cell-based; conditions: compounds incubated 30 minutes, then [14C] glycerol incorporation for 6 hours, read-out: inhibitory activity on triglyceride biosynthesis, concentration that inhibits 50% of the activity
Description: These trials consisted in measuring the in vitro inhibitory activity of the compounds of the invention on a cell test.
Chang liver cells at 80% confluence are detached with trypsin-EDTA, 4 ml per 175 cm^2 flask. After centrifugation at 1300×g for 5 minutes, the cell pellet is washed once with PBS and then resuspended in whole medium. The number of cells and their viability are determined on Mallassez cells via the exclusion method with trypan blue.
150 000 cells are inoculated per well into a 24-well plate for a minimum of 3 hours in DMEM medium 4.5 g/l of glucose supplemented with 10% FCS and with antibiotics, and are maintained at 37° C. in an incubator with CO2 (5%).
After 3 hours, the cells have adhered, the medium is removed and replaced overnight with DMEM medium 4.5 g/l of glucose with 2% of BSA/oleate.
After culturing for 18 hours without serum, the test compounds are incubated for 30 minutes ([…], 30, 100, 300 and 1000 nM) with the cells, followed by addition of [^14C] glycerol (0.4 μCi/ml/well) for an incorporation time of 6 hours.
The supernatant is drawn off and the cells are recovered by treatment with trypsin-EDTA, 100 μl/well, for 5 minutes at 37° C. This cell suspension is then recovered in an Eppendorf tube and is washed with twice 500 μl of PBS. The centrifugation at 1300×g for 5 minutes allows recovery of the cell pellets, which may be frozen at −20° C. In order to extract the lipids from the cell pellet, 400 μl of a methanol/dichloromethane/trifluoroacetic acid mixture (50/50/0.1%) is used to resuspend the cells. Next, the cell membranes are destroyed by sonication on a water bath, for 30 minutes. The samples are filtered through a 0.45 μm filtered and then injected onto a C18 HPLC column of 4.6×75 mm, 3 μm with a mobile phase of 5% (H2O+0.1% TFA), 70% methanol, 25% dichloromethane, with a flow rate of 1.5 ml/minute. The radioactivity is measured using a Flo One C625TR machine (Perkin-Elmer).
The inhibitory activity on triglyceride biosynthesis is given by the concentration that inhibits 50% of the activity.

| SMILES | melting point [°C] | IC50 [1] [nM] |
| --- | --- | --- |
| CC(C)Cc1nnc(NC(=O)c2ccc(C3CCC(CC(=O)O)CC3)cc2)s1 (stereo not drawn) [Compound 19, {4-[4-(5-isobutyl[1,3,4]thiadiazol-2-ylcarbamoyl)phenyl]cyclohexyl}acetic acid] | 263 |  |
| O=C(O)CC1CCC(c2ccc(C(=O)Nc3nnc(CCCc4ccc(F)cc4)s3)cc2)CC1 (stereo not drawn) [Compound 23, [4-(4-{5-[3-(4-fluorophenyl)propyl][1,3,4]thiadiazol-2-ylcarbamoyl}phenyl)cyclohexyl]-acetic acid] | 229 |  |
| O=C(O)C[C@H]1CC[C@H](c2ccc(C(=O)Nc3nnc(COC4CCCC4)s3)cc2)CC1 [Compound 37, trans-{4-[4-(5-cyclopentyloxymethyl[1.3.4]thiadiazol-2-ylcarbamoyl)-phenyl]cyclohexyl}acetic acid] |  | 18 |
| O=C(O)C=C1CCC(c2ccc(C(=O)Nc3nnc(Cc4ccccc4)s3)cc2)CC1 (stereo not drawn) [Compound 42, {4-[4-(5-benzyl[1,3,4]thiadiazol-2-ylcarbamoyl)phenyl]cyclohexylidene}acetic acid] | 255 |  |
| O=C(Nc1nnc(Cc2ccccc2)s1)c1ccc(C2CCC3(CC2)CC3C(=O)O)cc1 (stereo not drawn) [Compound 43, 6-[4-(5-benzyl[1.3.4]thiadiazol-2-ylcarbamoyl)phenyl]spiro[2.5]-octane-1-carboxylic acid] | 255 |  |
| O=C(O)C[C@H]1CC[C@H](c2ccc(C(=O)Nc3nnc(CCN4CCOCC4)s3)cc2)CC1 [Compound 48, trans-(4-{4-[5-(2-morpholin-4-ylethyl)[1,3,4]thiadiazol-2-ylcarbamoyl]phenyl}cyclohexyl)acetic acid] | 213 |  |
| O=C(O)C[C@H]1CC[C@H](c2ccc(C(=O)Nc3nnc(N4CCOCC4)s3)cc2)CC1 [Compound 49, trans-{4-[4-(5-morpholin-4-yl[1,3,4]thiadiazol-2-ylcarbamoyl)phenyl]cyclohexyl}acetic acid] | > 250 |  |
| O=C(Nc1nnc(CCC2CCCC2)s1)c1ccc(O[C@H]2CC[C@@H](C(=O)O)CC2)cc1 [Compound 57, cis-4-{4-[5-(2-cyclopentylethyl)[1,3,4]thiadiazol-2-ylcarbamoyl]phenoxy}cyclohexanecarboxylic acid] | 270 |  |
| O=C(Nc1nncs1)c1ccc(O[C@H]2CC[C@@H](C(=O)O)CC2)cc1 [Compound 61, cis-4-[4-([1,3,4]thiadiazol-2-ylcarbamoyl)phenoxy]cyclohexanecarboxylic acid] | 277 |  |
| O=C(O)C[C@H]1CC[C@H](c2ccc(C(=O)Nc3nnc(Cc4cc(F)cc(F)c4)s3)cc2)CC1 [Compound 78, trans-(4-{4-[5-(3,5-difluorobenzyl)[1,3,4]thiadiazol-2-ylcarbamoyl]phenyl}cyclohexyl)-acetic acid] | 294 |  |
| O=C(O)C[C@H]1CC[C@H](c2ccc(C(=O)Nc3nnc(CC4CCC(O)CC4)s3)cc2)CC1 (stereo partly drawn) [Compound 79, trans-(4-{4-[5-(4-hydroxycyclohexylmethyl)[1,3,4]thiadiazol-2-ylcarbamoyl]phenyl}-cyclohexyl)acetic acid] | > 250 |  |
| O=C(Nc1nnc(COCC2CCCO2)s1)c1ccc(O[C@H]2CC[C@H](C(=O)O)CC2)cc1 (stereo partly drawn) [Compound 82, trans-4-{4-[5-(tetrahydrofuran-2-ylmethoxymethyl)[1,3,4]thiadiazol-2-ylcarbamoyl]-phenoxy}cyclohexanecarboxylic acid] | 217 to 223 |  |
| O=C(Nc1nnc(-c2cccc(Cl)c2)s1)c1ccc([C@H]2CC[C@H]([C@H]3C[C@@H]3C(=O)O)CC2)cc1 [Compound 85, trans-(1S,2R)-2-(4-{4-[5-(3-chlorophenyl)[1,3,4]thiadiazol-2-ylcarbamoyl]phenyl}cyclohexyl)cyclopropanecarboxylic acid] | > 250 |  |
| O=C(C[C@H]1CC[C@H](c2ccc(C(=O)Nc3nnc(Cc4ccccc4)s3)cc2)CC1)NCC1COCCO1 (stereo partly drawn) [Compound 93, trans-N-(5-benzyl[1,3,4]thiadiazol-2-yl)-4-(4-{[([1,4]dioxan-2-ylmethyl)carbamoyl]-methyl}cyclohexyl)benzamide] | 281 |  |
| O=C(CCc1nnc(NC(=O)c2ccc(O[C@H]3CC[C@@H](C(=O)O)CC3)cc2)s1)c1ccccc1 [Compound 102, cis-4-{4-[5-(3-oxo-3-phenylpropyl)[1,3,4]thiadiazol-2-ylcarbamoyl]phenoxy}cyclohexanecarboxylic acid] | 220 to 260 |  |

Further lines, results first:

| melting point [°C] | IC50 [1] [nM] | SMILES |
| --- | --- | --- |
| 298 |  | CC(C)(C)c1nnc(NC(=O)c2ccc(C3CCC(CC(=O)O)CC3)cc2)s1 (stereo not drawn) [Compound 14, {4-[4-(5-tert-butyl[1,3,4]thiadiazol-2-ylcarbamoyl)phenyl]cyclohexyl}acetic acid] |
| 274 |  | O=C(O)CC1CCC(c2ccc(C(=O)Nc3nnc(C4CCCC4)s3)cc2)CC1 (stereo not drawn) [Compound 16, {4-[4-(5-cyclopentyl[1,3,4]thiadiazol-2-ylcarbamoyl)phenyl]cyclohexyl}acetic acid] |
| 268 |  | O=C(O)CC1CCC(c2ccc(C(=O)Nc3nnc(CC4CCCC4)s3)cc2)CC1 (stereo not drawn) [Compound 17, {4-[4-(5-cyclopentylmethyl[1,3,4]thiadiazol-2-ylcarbamoyl)phenyl]cyclohexyl}acetic acid] |
| 261 |  | O=C(O)CC1CCC(c2ccc(C(=O)Nc3nnc(COc4ccccc4)s3)cc2)CC1 (stereo not drawn) [Compound 22, {4-[4-(5-phenoxymethyl[1,3,4]thiadiazol-2-ylcarbamoyl)phenyl]cyclohexyl}acetic acid] |
| 275 |  | O=C(O)CC1CCC(c2ccc(C(=O)Nc3nnc(COc4ccc(F)cc4)s3)cc2)CC1 (stereo not drawn) [Compound 24, (4-{4-[5-(4-fluorophenoxymethyl)[1,3,4]thiadiazol-2-ylcarbamoyl]phenyl}cyclohexyl)-acetic acid] |
| 250 to 255 |  | O=C(O)COC1CCC(c2ccc(C(=O)Nc3nnc(Cc4ccccc4)s3)cc2)CC1 (stereo not drawn) [Compound 46, trans-{4-[4-(5-benzyl[1.3.4]thiadiazol-2-ylcarbamoyl)phenyl]cyclohexyloxy}acetic acid] |
| 258 |  | O=C(O)C[C@H]1CC[C@H](c2ccc(C(=O)Nc3nnc([C@H]4C[C@@H](c5ccccc5)C4)s3)cc2)CC1 [Compound 75, trans-(4-{4-[5-(3-phenylcyclobutyl)[1,3,4]thiadiazol-2-ylcarbamoyl]phenyl}cyclohexyl)acetic acid] |
| 291 |  | O=C(O)C[C@H]1CC[C@H](c2ccc(C(=O)Nc3nnc(NC(=O)Cc4ccccc4)s3)cc2)CC1 [Compound 76, {4-[4-(5-phenylacetylamino[1,3,4]thiadiazol-2-ylcarbamoyl)phenyl]cyclohexyl}acetic acid] |
| 230 to 250 |  | O=C(O)C[C@H]1CC[C@H](Oc2ccc(C(=O)Nc3nnc(Cc4ccccc4)s3)cc2)CC1 [Compound 81, trans-{4-[4-(5-benzyl[1,3,4]thiadiazol-2-ylcarbamoyl)phenoxy]cyclohexyl}acetic acid] |
| 240 to 268 |  | O=C(O)C[C@H]1CC[C@H](c2ccc(C(=O)Nc3nnc(CCC(=O)c4ccccc4)s3)cc2)CC1 [Compound 83, trans-(4-{4-[5-(3-oxo-3-phenylpropyl)[1,3,4]thiadiazol-2-ylcarbamoyl]phenyl}cyclohexyl)acetic acid] |
| 239 to 242 |  | O=C(O)C[C@H]1CC[C@H](c2ccc(C(=O)Nc3nnc(CCC(O)c4ccccc4)s3)cc2)CC1 (stereo partly drawn) [Compound 84, (4-{4-[5-(3-hydroxy-3-phenylpropyl)[1.3.4]thiadiazol-2-ylcarbamoyl]-phenyl}cyclohexyl)acetic acid] |
| 335 |  | O=C(O)C[C@H]1CC[C@H](c2ccc(C(=O)Nc3nnc(NC4CCCC4)s3)cc2)CC1 [Compound 92, trans-{4-[4-(5-cyclopentylamino[1,3,4]thiadiazol-2-ylcarbamoyl)phenyl]cyclohexyl}-acetic acid] |
| 241 |  | O=C(O)C[C@H]1CC[C@H](c2ccc(C(=O)Nc3nnc(C[S+]([O-])Cc4ccccc4)s3)cc2)CC1 (stereo partly drawn) [Compound 95, trans-{4-[4-(5-phenylmethanesulfinylmethyl[1.3.4]thiadiazol-2-ylcarbamoyl)phenyl]cyclohexyl}acetic acid] |
| 234 |  | O=C(O)C[C@H]1CC[C@H](c2ccc(C(=O)Nc3nnc(CSCc4ccccc4)s3)cc2)CC1 [Compound 96, trans-{4-[4-(5-benzylsulfanylmethyl[1,3,4]thiadiazol-2-ylcarbamoyl)phenyl]cyclohexyl}-acetic acid] |
| 247 |  | O=C(O)C[C@H]1CC[C@H](c2ccc(C(=O)Nc3nnc(C4CC(c5ccccc5)C4)s3)cc2)CC1 (stereo partly drawn) [Compound 97, trans-(4-{4-[5-(3-phenylcyclobutyl)[1,3,4]thiadiazol-2-ylcarbamoyl]phenyl}cyclohexyl)-acetic acid] |
